Test [1] in a line: Immunosuppressant-like activity in an in vitro splenocyte mitogenesis assay at concentration up to 10 uM; ND means not detected. It is filed as functional.
Test [2] addresses T1, Peptidyl-prolyl cis-trans isomerase FKBP1A (Homo sapiens, UniProt P62942). The test can be described thus: Compound was tested for inhibitory activity against FK506 binding protein 12 (FKBP12). As to conditions: read-out: Ki app.
Test [3] deals with T1, Peptidyl-prolyl cis-trans isomerase FKBP1A. The test can be described thus: Compound was tested for inhibitory activity against FK506 binding protein 12 (FKBP12); Value ranges from 190-900 nM. As to conditions: read-out: Ki app.
The nature of test [4]: Immunosuppressant-like activity in an in vitro splenocyte mitogenesis assay at concentration up to 10 uM. The test is classed as functional.

T1 sequence (P62942 whole entry): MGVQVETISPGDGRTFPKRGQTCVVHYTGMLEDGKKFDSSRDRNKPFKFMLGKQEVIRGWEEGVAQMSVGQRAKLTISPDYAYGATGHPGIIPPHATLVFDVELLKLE

Broadly, the IC50 is the concentration at which inhibition is half-maximal. Low readings indicate higher potency, high ones lower potency. As for `CCC(C)(C)C(=O)C(=O)N1CCCC[C@H]1C(=O)O[C@H](CCc1ccccc1)c1cccc(C(=O)c2ccccc2)c1`, the IC50 result in test [1] is “Not detected”. In test [2], the Ki stood at 5 nM.
Consider `CCC(C)(C)C(=O)C(=O)N1CCCC[C@H]1C(=O)O[C@H](CCc1ccccc1)C(C)(C)/C=C/C(=O)c1ccccc1`, for which, in test [3], the Ki was found to be 190 nM. The IC50 entry in test [1] is “Not detected”.
For `CCCC(CCC)C(=O)/C=C/C(C)(C)[C@@H](CCc1ccccc1)OC(=O)[C@@H]1CCCCN1C(=O)C(=O)C(C)(C)CC` the same measures were 190 nM and “Not detected”.
On to `C=CC[C@@H]1/C=C(\C)C[C@H](C)C(=O)OCCCC(C)(C)C(=O)C(=O)N2CCCC[C@H]2C(=O)OCCCOC1=O`, for which the Ki in test [2] came to 400 nM.
Same read-out and setting: then `C=CC[C@@H]1/C=C(\C)C[C@H](C)C(=O)OCC(C)(C)C(=O)C(=O)N2CCCC[C@H]2C(=O)O[C@H](CCc2ccccc2)[C@H](C)COC1=O`, with 6000 nM.
On to `CCC(C)(C)C(=O)C(=O)N1CCCC[C@H]1C(=O)O[C@H](CCc1ccccc1)C(C)(C)/C=C/C(=O)C1CCCCC1`, for which the IC50 result in test [1] was “Not detected”. Further, in test [2], the Ki is 340 nM.
On to `CC1(C)COC(=O)CCCCCCCCC(=O)c2cccc(c2)C(CCc2ccccc2)OC(=O)[C@@H]2CCCCN2C(=O)C1=O` (stereo partly drawn), for which the Ki in test [2] was found to be 20 nM.
Same read-out and setting: the same measure for `CC1(C)COC(=O)CCCCC(=O)/C=C/C(C)(C)[C@@H](CCc2ccccc2)OC(=O)[C@@H]2CCCCN2C(=O)C1=O`: 175 nM; for `CC1(C)COC(=O)CCCCC(=O)CCC(C)(C)[C@@H](CCc2ccccc2)OC(=O)[C@@H]2CCCCN2C(=O)C1=O`: 25 nM.
Regarding `C=CCN(CC=C)C(=O)c1cccc([C@@H](CCc2ccccc2)OC(=O)[C@@H]2CCCCN2C(=O)C(=O)C(C)(C)CC)c1`, the 50% inhibitory concentration (IC50) result in test [1] is on record as “Not detected”. For the same compound, the Ki in test [2] amounted to 5 nM.
Turning to `C=CC[C@@H]1/C=C(\C)C[C@H](C)C(=O)OCC(C)(C)C(=O)C(=O)N2CCCC[C@H]2C(=O)OCCCOC1=O`, in test [2], the Ki was found to be 130 nM.
Same read-out and setting: then `C=CC[C@@H]1/C=C(\C)C[C@H](C)C(=O)OCCCC(C)(C)C(=O)C(=O)N2CCCC[C@H]2C(=O)O[C@H](CCc2ccccc2)[C@H](C)COC1=O`, with greater than 5000 nM.
In test [4], `C=CC[C@@H]1/C=C(\C)C[C@H](C)C[C@H](OC)[C@H]2O[C@@](O)(C(=O)C(=O)N3CCCC[C@H]3C(=O)O[C@H](/C(C)=C/[C@@H]3CC[C@@H](O)[C@H](OC)C3)[C@H](C)[C@@H](O)CC1=O)[C@H](C)C[C@@H]2OC` [TACROLIMUS ANHYDROUS] gave a concentration for half-maximal inhibition (IC50) of 1 nM.
